Experimental data: publication PMC4980415 (Psychopharmacology, 2016)
Structures can show the parent of a compound that is named as a salt.

Assays:
[1] = test system: early memory consolidation in male Wistar rats; experiment: Novel object recognition (NOR): early consolidation, drug 4 min after T1; assay type: in vivo, rat; details: 4 min after T1 (head prints T2 +4 min)
Procedure: (§1) The drug was administered, per os (po), by gavage to rats in a volume of 2 ml/kg body weight. Oral dosing solutions were prepared fresh daily. […] The pH of the dosing solution was adjusted to ~pH 5.5 by dropwise addition of 0.1 N NaOH in saline and volume adjusted by addition of saline in preparation for intraperitoneal (ip) dosing. […] Control treatments were always the vehicle solutions of the corresponding drugs.
(§2) The object recognition test was performed as described elsewhere (Ennaceur and Delacour [1988]; Akkerman et al. 2014). The apparatus consisted of a circular arena, 83 cm in diameter. Half of the 40-cm-high wall was made of gray polyvinyl chloride, the other half of transparent polyvinyl chloride. The light intensity was equal in the different parts of the apparatus, as fluorescent red tubes provided a constant illumination of about 20 lx on the floor of the apparatus. Two objects were placed in a symmetrical position at about 10 cm from the gray wall. Four different sets of objects were used. The different objects were (1) a cone consisting of a gray polyvinyl chloride base (maximal diameter 18 cm) with a collar on top made of brass (total height 16 cm), (2) a standard 1 L transparent glass bottle (diameter 10 cm, height 22 cm) filled with water, (3) a large metal cube (10.0 × 5.0 × 7.5 cm) with two holes (diameter 1.9 cm), and (4) a large aluminum cube with a tapering top (13.0 × 8.0 × 8.0 cm). The objects used in this study were carefully selected to be “novelty neutral,” that is to say the rats have no innate preference for one over the other. In all cases, objects were of sufficient size and weight that rats could not move the objects.
(§3) A testing session consisted of two trials. The duration of each trial was 3 min. During the first trial (T1), the apparatus contained two identical objects (samples). Rats were placed in the apparatus facing the wall at the middle of the front (transparent) segment. After the first exploration period, the rat was put back in its home cage. Subsequently, after a 24-h delay interval, the rat was put in the apparatus for the second trial (T2). The times spent in exploring each object during T1 and T2 were recorded manually using a personal computer.
(§4) Exploration was defined as follows: directing the nose to the object at a distance of no more than 2 cm and/or touching the object with the nose. Sitting on the object was not considered as exploratory behavior. In order to avoid the presence of olfactory cues, the objects were always thoroughly cleaned with a 70 % ethanol solution before each trial. All combinations and locations of objects were used in a balanced manner to reduce potential biases due to preferences for particular locations or objects.
(§5) During the first 2 weeks after animal arrival, the animals were handled daily. They were then adapted to the procedure over the period of 2 days by allowing them to explore the apparatus (without any objects) for 3 min twice each day. […] After this, the rats were assigned to treatment conditions in a balanced manner, thereby insuring an equal distribution of object combinations among the treatment conditions. […] In all experiments, a 24-h inter-trial interval was used. In all cases, the experimenter was unaware of the treatment conditions that were being tested.
(§6) The basic measure recorded was the time spent by each rat exploring an object during T1 and T2. The time spent in exploring the two identical samples was represented by “a1” and “a2.” The time spent in T2 in exploring the sample and new object was represented by “a” and “b,” respectively. The following variables were calculated: e1 = a1 + a2, e2 = a + b, and d2 = (b − a) / e2. The e1 and e2 are measures of the total exploration time of both objects during T1 and T2, respectively. Differences in exploration times between treatment conditions were analyzed using a t test or one-way ANOVA. […]

B2 (H), bradykinin = biological target: T1, B2 (H), bradykinin (Homo sapiens, UniProt P30411); experiment: Off-target binding, General SEP II panel; details: 10 μM ITI-214, mean of n = 2
T1 construct: Caliper Life Sciences (contract screen)
T1 sequence (P30411 1-391): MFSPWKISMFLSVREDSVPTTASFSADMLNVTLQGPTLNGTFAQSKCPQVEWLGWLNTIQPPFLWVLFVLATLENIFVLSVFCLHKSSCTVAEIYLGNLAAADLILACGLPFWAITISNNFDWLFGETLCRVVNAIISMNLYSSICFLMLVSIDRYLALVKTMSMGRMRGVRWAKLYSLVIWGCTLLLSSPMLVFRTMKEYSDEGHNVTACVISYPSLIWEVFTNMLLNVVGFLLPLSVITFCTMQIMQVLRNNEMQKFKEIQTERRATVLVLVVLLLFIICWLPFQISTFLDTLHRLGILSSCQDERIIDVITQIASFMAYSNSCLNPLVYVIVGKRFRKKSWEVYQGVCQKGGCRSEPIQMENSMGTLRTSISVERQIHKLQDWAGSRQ

[2] = test system: Ca^2+ channel (L, DHP site); experiment: Off-target binding, General SEP II panel; details: 10 μM ITI-214, mean of n = 2
H3 (h), histamine = biological target: T2, H3 (h), histamine (Homo sapiens, UniProt Q9Y5N1); experiment: Off-target binding, General SEP II panel; details: 10 μM ITI-214, mean of n = 2
T2 construct: Caliper Life Sciences (contract screen)

[3] = test system: memory retrieval in male Wistar rats; experiment: Novel object recognition (NOR): retrieval, drug 2 h before T2; assay type: in vivo, rat; details: for Exploration time e1 (T1) / Exploration time e2 (T2): 2 h before T2, 24 h interval
Procedure: as §1, §2, §3, §4, §5, §6

[4] = test system: memory acquisition in male Wistar rats; experiment: Novel object recognition (NOR): acquisition, drug 2 h before T1; assay type: in vivo, rat; details: for Exploration time e1 (T1) / Exploration time e2 (T2): 2 h before T1, 24 h interval
Procedure: as §1, §2, §3, §4, §5, §6

T2 sequence (Q9Y5N1 whole entry): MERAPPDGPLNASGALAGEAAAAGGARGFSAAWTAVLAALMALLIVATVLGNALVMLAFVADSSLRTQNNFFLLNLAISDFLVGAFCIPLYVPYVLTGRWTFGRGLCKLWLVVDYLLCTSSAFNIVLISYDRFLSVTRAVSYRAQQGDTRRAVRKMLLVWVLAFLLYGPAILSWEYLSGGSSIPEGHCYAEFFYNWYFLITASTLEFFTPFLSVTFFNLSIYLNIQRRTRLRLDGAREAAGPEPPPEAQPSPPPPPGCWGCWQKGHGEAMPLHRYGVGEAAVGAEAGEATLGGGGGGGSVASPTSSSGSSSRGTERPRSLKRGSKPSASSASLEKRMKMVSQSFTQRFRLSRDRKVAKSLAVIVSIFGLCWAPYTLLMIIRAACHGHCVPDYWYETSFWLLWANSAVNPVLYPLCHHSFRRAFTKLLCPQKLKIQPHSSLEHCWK

CN1C(=O)c2c(nn(Cc3ccc(-c4cccc(F)n4)cc3)c2Nc2ccccc2)N2C1=N[C@@H]1CCC[C@@H]12 [ITI-214, (6aR,9aS)-2-(4-(6-fluoropyridin-2-yl)benzyl)-5-methyl-3-(phenylamino)-5,6a,7,8,9,9a-hexahydrocyclopenta-[4,5]imidazo[1,2-a]pyrazolo[4,3-e]pyrimidin-4-(2H)-one phosphate salt]
Exploration time e1 (T1) ([1]; 1 mg/kg po): 26.36 (1.93) s
Exploration time e2 (T2) ([1]; 1 mg/kg po): 29.66 (1.94) s
Exploration time e1 (T1) ([1]; 3 mg/kg po): 25.02 (2.20) s
Exploration time e2 (T2) ([1]; 3 mg/kg po): 30.55 (1.84) s
Exploration time e1 (T1) ([1]; 10 mg/kg po): 30.01 (1.62) s
Exploration time e2 (T2) ([1]; 10 mg/kg po): 31.35 (1.71) s
% Binding (B2 (H), bradykinin): 30.79%
% Binding [2]: 73.28%
% Binding (H3 (h), histamine): 32.54%
Exploration time e1 (T1) ([3]; 0.1 mg/kg po): 29.32 (1.82) s
Exploration time e2 (T2) ([3]; 0.1 mg/kg po): 28.78 (2.08) s
Exploration time e1 (T1) ([3]; 0.3 mg/kg po): 28.83 (1.84) s
Exploration time e2 (T2) ([3]; 0.3 mg/kg po): 29.31 (1.52) s
Exploration time e1 (T1) ([3]; 1 mg/kg po): 26.81 (1.72) s
Exploration time e2 (T2) ([3]; 1 mg/kg po): 33.64 (2.35) s
Exploration time e1 (T1) ([3]; 3 mg/kg po): 27.20 (1.90) s
Exploration time e2 (T2) ([3]; 3 mg/kg po): 28.60 (1.13) s
Exploration time e1 (T1) ([3]; 10 mg/kg po): 30.59 (1.98) s
Exploration time e2 (T2) ([3]; 10 mg/kg po): 30.52 (1.87) s
full effective dose (d2 different from chance and from vehicle), retrieval ([3]; po 2 h before T2): 1 mg/kg
effect on exploratory behavior during T1 or T2 ([3]; retrieval and combined sub-threshold dose experiments): no effect on exploratory behavior
Exploration time e1 (T1) ([4]; 0.1 mg/kg po): 28.38 (1.86) s
Exploration time e2 (T2) ([4]; 0.1 mg/kg po): 27.33 (1.48) s
Exploration time e1 (T1) ([4]; 0.3 mg/kg po): 27.55 (1.62) s
Exploration time e2 (T2) ([4]; 0.3 mg/kg po): 26.10 (1.69) s
Exploration time e1 (T1) ([4]; 1 mg/kg po): 27.97 (1.78) s
Exploration time e2 (T2) ([4]; 1 mg/kg po): 29.38 (1.38) s
Exploration time e1 (T1) ([4]; 3 mg/kg po): 27.28 (1.74) s
Exploration time e2 (T2) ([4]; 3 mg/kg po): 28.73 (1.62) s
Exploration time e1 (T1) ([4]; 10 mg/kg po): 26.21 (1.97) s
Exploration time e2 (T2) ([4]; 10 mg/kg po): 28.15 (1.38) s
effect on exploratory behavior during T1 or T2 ([4]; 0.1–10 mg/kg po 2 h before T1): no effect on exploratory behavior
